Tests used:
[1] = system: plasma cholesterol level; test: In vivo inhibition of the increase in plasma cholesterol level in cholesterol/cholic acid-fed rats; settings: increase in plasma cholesterol level measured after 3 days, relative to control animals on cholesterol supplemented diet; for inhibition in vivo at 0.03 % strength / inhibition in vivo at 0.01 % strength: Rattus norvegicus, feed or water, 72 h, read-out: In-vivo % Reduction; for inhibition in vivo at 0.03 % strength / In-vivo % Reduction: dose 0.03 %w/w in diet; for inhibition in vivo at 0.01 % strength: dose 0.01 %w/w in diet
[2] = system: acyl coenzyme-A:cholesterol-O-acyl transferase (ACAT;EC 2.3.1.26); test: In vitro ACAT inhibition in rat liver microsomes incubated with radiolabelled oleoyl-CoA; assay type: biochemical
Procedure: In assays performed in vitro, microsomes (prepared from the livers of rats fed a diet supplemented with 0.5%w/w cholesterol and 0.25%w/w cholic acid for 7 days) were incubated with radiolabelled oleoyl-CoA in the presence of compounds according to the invention at a concentration (in »g/m1) as shown in Table 1.

[3] = concentration 0.5 »g/m1, microsomes from livers of rats fed 0.5%w/w cholesterol and 0.25%w/w cholic acid for 7 days
[4] = concentration 1.0 »g/m1, microsomes from livers of rats fed 0.5%w/w cholesterol and 0.25%w/w cholic acid for 7 days

Row | Compound | In-vitro % Inhibition [2, 3] | also measured
1 | Cl.Cl.Cn1ccnc1SCCCSc1nc(-c2ccccc2)c(-c2ccccc2)[nH]1 [Compound D, 2-[3-(1-Methylimidazol-2-ylthio)propylthio]-4,5-diphenylimidazole dihydrochloride] | – | In-vivo % Reduction [1]: 88%
2 | Cl.Cl.c1ccc(-c2nc(SCCCSc3nc(-c4ccccn4)c(-c4ccccn4)[nH]3)[nH]c2-c2ccccc2)cc1 [Compound K, 1-(4,5-Diphenylimidazol-2-ylthio)-3-[(4,5-dipyrid-2-yl)imidazol-2-ylthio]propane dihydrochloride] | 77% | inhibition in vivo at 0.01 % strength [1]: 4%
3 | Cn1nnnc1S(=O)(=O)CCCSc1nc(-c2ccccc2)c(-c2ccccc2)[nH]1 [Compound L, 2-[3-(1-Methyltetrazol-5-ylsulphonyl)propylthio]-4,5-diphenylimidazole] | 19% | –
4 | Cn1ccnc1S(=O)(=O)CCCCS(=O)(=O)c1nc(-c2ccccc2)c(-c2ccccc2)[nH]1 [Compound O, 2-[4-(1-Methylimidazol-2-ylsulphonyl)butylsulphonyl]-4,5-diphenylimidazole] | 23% | –
5 | c1ccc(-c2nc(SCCCCCCCCCSc3nc(-c4ccccc4)c(-c4ccccc4)[nH]3)[nH]c2-c2ccccc2)cc1 [Compound S, 1,9-Bis(4,5-diphenylimidazol-2-ylthio)nonane] | 77% | –
6 | c1ccc(-c2nc(SCCSc3nc(-c4ccccc4)c(-c4ccccc4)[nH]3)[nH]c2-c2ccccc2)cc1 [E, 1,2-Bis(4,5-diphenylimidazol-2-ylthio)ethane] | – | In-vitro % Inhibition [2, 4]: 88%
7 | c1ccc(-c2nc(SCCCSc3nc(-c4ccccc4)c(-c4ccccc4)[nH]3)[nH]c2-c2ccccc2)cc1 [F, 1,3-Bis(4,5-diphenylimidazol-2-ylthio)propane] | – | inhibition in vivo at 0.03 % strength [1]: 72%; In-vitro % Inhibition [2, 4]: 96%
8 | c1ccc(-c2nc(SCCCCSc3nc(-c4ccccc4)c(-c4ccccc4)[nH]3)[nH]c2-c2ccccc2)cc1 [P, 1,4-Bis(4,5-diphenylimidazol-2-ylthio)butane] | 97% | –
9 | C(=C\CSc1nc(-c2ccccc2)c(-c2ccccc2)[nH]1)/CSc1nc(-c2ccccc2)c(-c2ccccc2)[nH]1 [Q, E-1,4-Bis(4,5-diphenylimidazol-2-ylthio)but-2-ene] | 98% | inhibition in vivo at 0.01 % strength [1]: 74%

Now from value to compound, other results behind:

Row | In-vitro % Inhibition [2, 3] | Compound | also measured
10 | 88% | c1ccc(-c2nc(SCCCSc3ncccn3)[nH]c2-c2ccccc2)cc1 [A, 2-[3-(Pyrimidin-2-ylthio)propylthio]-4,5-diphenylimidazole] | inhibition in vivo at 0.03 % strength [1]: 7%
11 | 93% | Cn1ccnc1SCCCSc1nc(-c2ccccc2)c(-c2ccccc2)[nH]1 [C, 2-[3-(1-Methylimidazol-2-ylthio)propylthio]-4,5-diphenylimidazole] | In-vivo % Reduction [1]: 66%
12 | 90% | c1ccc(-c2nc(SCCCSc3ccncc3)[nH]c2-c2ccccc2)cc1 [Compound B, 2-[3-(Pyrid-4-ylthio)propylthio]-4,5-diphenylimidazole] | inhibition in vivo at 0.03 % strength [1]: 91%
13 | 80% | Cc1cc(C)nc(SCCCSc2nc(-c3ccccc3)c(-c3ccccc3)[nH]2)n1 [Compound G, 2-[3-(4,6-Dimethylpyrimidin-2-ylthio)propylthio]-4,5-diphenylimidazole] | –
14 | 90% | Cn1ccnc1S(=O)(=O)CCCSc1nc(-c2ccccc2)c(-c2ccccc2)[nH]1 [Compound H, 2-[3-(1-Methylimidazol-2-ylsulphonyl)propylthio]-4,5-diphenylimidazole] | inhibition in vivo at 0.03 % strength [1]: 108%
15 | 84% | Cn1cnnc1SCCCSc1nc(-c2ccccc2)c(-c2ccccc2)[nH]1 [Compound I, 2-[3-(4-Methyl-1,2,4-triazol-3-ylthio)propylthio]-4,5-diphenylimidazole] | inhibition in vivo at 0.01 % strength [1]: 5%
16 | 95% | Cn1ccnc1SCCCCCCSc1nc(-c2ccccc2)c(-c2ccccc2)[nH]1 [Compound R, 2-[6-(1-Methylimidazol-2-ylthio)hexylthio]-4,5-diphenylimidazole] | –
17 | 91% | Cn1ccnc1SCCCCCCCCCSc1nc(-c2ccccc2)c(-c2ccccc2)[nH]1 [Compound T, 2-[9-(1-Methylimidazol-2-ylthio)nonylthio]-4,5-diphenylimidazole] | –
18 | 84% | Cn1nnnc1SCCCSc1nc(-c2ccccc2)c(-c2ccccc2)[nH]1 [J, 2-[3-(1-Methyltetrazol-5-ylthio)propylthio]-4,5-diphenylimidazole] | inhibition in vivo at 0.01 % strength [1]: 17%
19 | 95% | c1ccc(-c2nc(SCCCSc3ncc[nH]3)[nH]c2-c2ccccc2)cc1 [M, 2-[3-(Imidazol-2-ylthio)propylthio]-4,5-diphenylimidazole] | inhibition in vivo at 0.01 % strength [1]: 107%
20 | 94% | Cn1ccnc1SCCCCSc1nc(-c2ccccc2)c(-c2ccccc2)[nH]1 [N, 2-[4-(1-Methylimidazol-2-ylthio)butylthio]-4,5-diphenylimidazole] | inhibition in vivo at 0.03 % strength [1]: 98%

— EP0505468B1, “IMIDAZOLE DERIVATIVES AND THEIR USE AS ACYL COENZYME-A INHIBITORS” (RHONE-POULENC SANTE, priority 1989, dated 1991)
